Reference: the supplement of paper PMC10307832

Legend:
Assay in all cases: relative viability (nuclei count vs DMSO), 5 days (fraction); higher = more cells survive
[1] = tested on: NCI-H647
Summary of the method: (§1)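 Each reported value is a median over duplicate plates. It expresses relative viability: treated-well nuclei count divided by vehicle-well nuclei count. Lung cancer cell lines in 1536-well plates were dosed by pin tool a day after seeding, alone with one drug or with a fixed anchor-drug dose plus five library-drug doses (not always all listed) in √10 steps, and nuclei were counted after 5 days.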

[2] = tested on: PC-14
Summary of the method: as §1

[3] = tested on: SW 900
Summary of the method: as §1

[4] = tested on: NCI-H520
Summary of the method: as §1

[5] = tested on: HCC-15
Summary of the method: as §1

[6] = tested on: UMC-11
Summary of the method: as §1

[7] = tested on: NCI-H322M
Summary of the method: as §1

[8] = tested on: NCI-H2405
Summary of the method: as §1

[9] = tested on: NCI-H2170
Summary of the method: as §1

[10] = tested on: NCI-H441
Summary of the method: as §1

[11] = tested on: NCI-H1734
Summary of the method: as §1

[12] = tested on: NCI-H1793
Summary of the method: as §1

[13] = tested on: NCI-H3122
Summary of the method: as §1

[14] = tested on: NCI-H2023
Summary of the method: as §1

[15] = tested on: NCI-H1650
Summary of the method: as §1

[16] = tested on: EPLC-272H
Summary of the method: as §1

[17] = tested on: H3255
Summary of the method: as §1

[18] = tested on: LOU-NH91
Summary of the method: as §1

[19] = tested on: COR-L23
Summary of the method: as §1

[20] = tested on: 201T
Summary of the method: as §1

[21] = tested on: NCI-H2347
Summary of the method: as §1

With `COc1nc(C)cnc1NS(=O)(=O)c1cccnc1-c1ccc(-c2nnco2)cc1` [Zibotentan] + Nc1ncn([C@H]2C[C@H](O)[C@@H](CO)O2)c(=O)n1 [Decitabine] (partner 2 µM) the relative viability ([1]; first compound 0.08 µM) was 0.438, the relative viability ([1]; first compound 0.253 µM) was 0.341 and the relative viability ([1]; first compound 0.8 µM) was 0.448. It also gave a relative viability ([1]; first compound 2.53 µM) of 0.509, a relative viability ([2]; first compound 0.08 µM) of 0.267 and a relative viability ([2]; first compound 0.253 µM) of 0.198. It also gave a relative viability ([2]; first compound 0.8 µM) of 0.287, a relative viability ([2]; first compound 2.53 µM) of 0.265 and a relative viability ([3]; first compound 0.08 µM) of 0.482. It also gave a relative viability ([3]; first compound 0.253 µM) of 0.345, a relative viability ([3]; first compound 0.8 µM) of 0.49 and a relative viability ([3]; first compound 2.53 µM) of 0.438. For the same compound, the relative viability ([4]; first compound 0.08 µM) was 0.62, the relative viability ([4]; first compound 0.253 µM) was 0.441 and the relative viability ([4]; first compound 0.8 µM) was 0.514. The relative viability ([4]; first compound 2.53 µM) was 0.575, the relative viability ([5]; first compound 0.08 µM) was 0.607 and the relative viability ([5]; first compound 0.253 µM) was 0.538. It also gave a relative viability ([5]; first compound 0.8 µM) of 0.727, a relative viability ([5]; first compound 2.53 µM) of 0.696 and a relative viability ([6]; first compound 0.08 µM) of 0.576. For the same compound, the relative viability ([6]; first compound 0.253 µM) was 0.532, the relative viability ([6]; first compound 0.8 µM) was 0.634 and the relative viability ([6]; first compound 2.53 µM) was 0.697. It also gave a relative viability ([7]; first compound 0.08 µM) of 0.74, a relative viability ([7]; first compound 0.253 µM) of 0.679 and a relative viability ([7]; first compound 0.8 µM) of 0.733. For the same compound, the relative viability ([7]; first compound 2.53 µM) was 0.856, the relative viability ([8]; first compound 0.08 µM) was 0.764 and the relative viability ([8]; first compound 0.253 µM) was 0.684. It also gave a relative viability ([8]; first compound 0.8 µM) of 0.767, a relative viability ([8]; first compound 2.53 µM) of 0.73 and a relative viability ([9]; first compound 0.08 µM) of 0.449. It also gave a relative viability ([9]; first compound 0.253 µM) of 0.463, a relative viability ([9]; first compound 0.8 µM) of 0.341 and a relative viability ([9]; first compound 2.53 µM) of 0.463. It also gave a relative viability ([10]; first compound 0.08 µM) of 0.244, a relative viability ([10]; first compound 0.253 µM) of 0.273 and a relative viability ([10]; first compound 0.8 µM) of 0.264. The relative viability ([10]; first compound 2.53 µM) was 0.225, the relative viability ([11]; first compound 0.08 µM) was 0.486 and the relative viability ([11]; first compound 0.253 µM) was 0.496. It also gave a relative viability ([11]; first compound 0.8 µM) of 0.513, a relative viability ([11]; first compound 2.53 µM) of 0.541 and a relative viability ([12]; first compound 0.08 µM) of 0.503. For the same compound, the relative viability ([12]; first compound 0.253 µM) was 0.471, the relative viability ([12]; first compound 0.8 µM) was 0.528 and the relative viability ([12]; first compound 2.53 µM) was 0.635. The relative viability ([13]; first compound 0.08 µM) was 0.472, the relative viability ([13]; first compound 0.253 µM) was 0.379 and the relative viability ([13]; first compound 0.8 µM) was 0.357. For the same compound, the relative viability ([13]; first compound 2.53 µM) was 0.377, the relative viability ([14]; first compound 0.08 µM) was 0.245 and the relative viability ([14]; first compound 0.253 µM) was 0.211. The relative viability ([14]; first compound 0.8 µM) was 0.203, the relative viability ([14]; first compound 2.53 µM) was 0.214 and the relative viability ([15]; first compound 0.08 µM) was 0.393. It also gave a relative viability ([15]; first compound 0.8 µM) of 0.626, a relative viability ([15]; first compound 2.53 µM) of 0.488 and a relative viability ([16]; first compound 0.08 µM) of 0.41. It also gave a relative viability ([16]; first compound 0.253 µM) of 0.304, a relative viability ([16]; first compound 0.8 µM) of 0.366 and a relative viability ([16]; first compound 2.53 µM) of 0.394. It also gave a relative viability ([17]; first compound 0.08 µM) of 0.671, a relative viability ([17]; first compound 0.253 µM) of 0.601 and a relative viability ([17]; first compound 0.8 µM) of 0.586. It also gave a relative viability ([17]; first compound 2.53 µM) of 0.564, a relative viability ([18]; first compound 0.08 µM) of 0.799 and a relative viability ([18]; first compound 0.253 µM) of 0.78. For the same compound, the relative viability ([18]; first compound 0.8 µM) was 0.879, the relative viability ([18]; first compound 2.53 µM) was 0.815 and the relative viability ([19]; first compound 0.08 µM) was 0.506. For the same compound, the relative viability ([19]; first compound 0.253 µM) was 0.402, the relative viability ([19]; first compound 0.8 µM) was 0.573 and the relative viability ([19]; first compound 2.53 µM) was 0.455. The relative viability ([20]; first compound 0.08 µM) was 0.841, the relative viability ([20]; first compound 0.253 µM) was 0.865 and the relative viability ([20]; first compound 0.8 µM) was 0.855. For the same compound, the relative viability ([20]; first compound 2.53 µM) was 0.919, the relative viability ([21]; first compound 0.08 µM) was 0.583 and the relative viability ([21]; first compound 0.253 µM) was 0.586. The relative viability ([21]; first compound 0.8 µM) was 0.744 and the relative viability ([21]; first compound 2.53 µM) was 0.604.
